Tested on: transcript levels in tissues (GH/IGF and glucagon/insulin axes, SSTR signalling)
Format: in vivo, cynomolgus monkeys
[1] = RNA expression fold change, pituitary

For “cyclo[4-(NH2—C2H4—NH—CO—O)Pro-Phg-DTrp-Lys-Tyr(4-Bzl)-Phe] [SOM230]”, the “Core-binding factor, runt domain, α subunit 2; translocated to, 1; cyclin D-related ↑” value [1] was “D-related ↑ x3”, the “Cyclin D3 ↑” value [1] was “Cyclin D3 ↑ x2.5” and the “Cyclin F ↓” value [1] was “Cyclin F ↓ x2”. The “Dual specificity phosphatase 8 ↓” value [1] was “phosphatase 8 ↓ x3”, the “EGFRBP 2 ↓” value [1] was “EGFRBP 2 ↓ x1.5” and the “FGFR 2 ↓” value [1] was “FGFR 2 ↓ x2”. The “Fms-related tyrosine kinase 1 (VEGF/vascular permeability factor receptor) ↓” value [1] was “receptor) ↓ x1.5”, the “Forkhead box H1 ↑” value [1] was “Forkhead box H1↑ x2” and the “Forkhead box O3A ↓” value [1] was “↓ x1.5”. For the same substance, the “G protein-coupled receptor, family C, group 5, member B ↑” value [1] was 5, member B ↑ x2, the “G-protein coupled receptor 9 ↑” value [1] was “receptor 9 ↑ x2.5” and the “G-protein coupled receptor 49 ↓” value [1] was “receptor 49 ↓ x2”. For the same substance, the “GABA-B R 1, isoform a precursor ↑” value [1] was “↑ x1.5”, the “GFR bound protein 10 ↑” value [1] was “↑ x1.5” and the “GLUR 2, precursor ↑” value [1] was “x1.5”. The “GTP-binding protein 11 ↑” value [1] was “↑ x2.5”, the “GTP-binding protein (G protein), q polypeptide ↓” value [1] was “↓ x2.5” and the “GTP-binding protein like-1 ↓” value [1] was “like-1 ↓ x3”. For the same substance, the “Gastrin receptor ↓” value [1] was “Gastrin receptor ↓ x2”, the “Glucagon receptor ↑” value [1] was “Glucagon receptor ↑ x7” and the “IFN stimulated gene ↑” value [1] was “↑ x3.5”. For the same substance, the “IFNR2 (α, β and ω) ↓” value [1] was “↓ x2.5”, the “IFNγ-inducible protein 30 (IP30) ↑” value [1] was 30 (IP30) ↑ x1.5 and the “IGF-2 ↓” value [1] was “IGF-2 ↓ x1.5”. The “IGFBP, acid labile subunit ↑” value [1] was “subunit ↑ x3.5”, the “IP3 receptor, type 1 ↑” value [1] was “↑ x1.5” and the “IP-4-phosphatase, type 1, isoform b ↓” value [1] was 1, isoform b ↓ x2. For the same substance, the “JAK 1 ↑” value [1] was “JAK 1 ↑ x2”, the “K+ channel, subfamily K, member 3 (TASK) ↓” value [1] was “↓ x4” and the “K+ voltage-gated channel, Shab-related subfamily, member 1 ↓” value [1] was “subfamily, member 1 ↓ x2”. For the same substance, the “MAPKKK5 ↑” value [1] was “MAPKKK5 ↑ x2”, the “Neuroblastoma-amplified protein ↑” value [1] was “↑ x1.5” and the “PDGFβ ↓” value [1] was “PDGFβ ↓ x2”. The “PI transfer protein, β ↓” value [1] was “↓ x2.5”, the “PI-3-kinase, catalytic, α polypeptide ↓” value [1] was “polypeptide ↓ x3” and the “PI-3-kinase, catalytic, δ polypeptide ↓” value [1] was “↓ x2”. For the same substance, the “PKC inhibitor ↑” value [1] was “PKC inhibitor ↑ x2”, the “PLCγ 1 ↓” value [1] was “PLCγ 1 ↓ x1.5” and the “PP 1, regulatory (inhibitor) subunit 5 ↑” value [1] was “↑ x3.5”. The “PTP, receptor type, T ↑” value [1] was “↑ x2”, the “Phosphatase and tensin homolog (mutated in multiple advanced cancers 1) ↓” value [1] was 1) ↓ x3.5 and the “Programmed cell death 6 ↑” value [1] was “↑ x1.5”. The “Putative Ca++ transporting ATPase ↑” value [1] was “transporting ATPase ↑ x2”, the “RAB 5C, member RAS oncogene family ↑” value [1] was “oncogene family ↑ x3” and the “Rab3 GTPase-activating protein, non catalytic subunit ↓” value [1] was “subunit ↓ x2”. For the same substance, the “Rab geranylgeranyltransferase, α subunit ↓” value [1] was “α subunit ↓ x1.5”, the “Rab geranyltransferase, β subunit ↑” value [1] was “β subunit ↑ x2” and the “Receptor (calcitonin) activity modifying protein 2 precursor ↑” value [1] was 2 precursor ↑ x3.5. The “Receptor tyrosine kinase-like orphan receptor 2 ↑” value [1] was “receptor 2 ↑ x2”, the “Regulator of G-protein signalling 9 ↑” value [1] was “↑ x2” and the “S-phase response (cyclin-related) ↑” value [1] was “(cyclin-related) ↑ x2”. The “SHB adaptor protein (a Src homology 2 protein) ↓” value [1] was “↓ x2.5”, the “SSTR3 ↑” value [1] was “SSTR3 ↑ x3” and the “STAT 1, 91kδ ↓” value [1] was “STAT 1, 91kδ ↓ x2”. For the same substance, the “Soluble adenylyl cyclase ↓” value [1] was “↓ x2”, the “TNFR subfamily, member 14; herpesvirus entry mediator ↓” value [1] was “entry mediator ↓ x2.5” and the “TNFR-associated factor 2 ↓” value [1] was 2 ↓ x4. For the same substance, the “Thrombospondin-p50 ↓” value [1] was “↓ x2”, the “Thyroid transcription factor 1 ↑” value [1] was “factor 1 ↑ x2.5” and the “VEGF B ↑” value [1] was “VEGF B ↑ x1.5”. The “Extra spindle poles, S. cerevisiae, homolog of ↓” value (cynomolgus monkey, in vivo) was “↓ x2.5”, the “Acetylserotonin O-methyl transferase-like expression ↓ (fold change)” value (kidney) was “transferase-like ↓ x3” and the “Adrenomedullin expression ↑ (fold change)” value (kidney) was “x1.5”. For the same substance, the “Angiotensin receptor 1B expression ↓ (fold change)” value (kidney) was 1B ↓ x1.5, the “Arginine vasopressin (neurophysin II, antidiuretic hormone, diabete insipidus, neurohypophyseal) expression ↑ (fold change)” value (kidney) was “↑ x2” and the “CDC37 (cell division cycle 37, S. cerevisiae, homolog) expression ↑ (fold change)” value (kidney) was “homolog) ↑ x1.5”. For the same substance, the “CSF-1 receptor, formerly Mc Donough feline sarcoma viral (v-fms) oncogene homolog expression ↑ (fold change)” value (kidney) was “homolog ↑ x2.5”, the “Ca++ channel, voltage-dependent, α 1H subunit expression ↑ (fold change)” value (kidney) was “α 1H subunit ↑ x2” and the “Calcium/calmodulin-dependent protein kinase kinase 2, β expression ↑ (fold change)” value (kidney) was “↑ x1.5”. The “Calmodulin 3 (phosphorylase kinase, δ) expression ↓ (fold change)” value (kidney) was “kinase, δ) ↓ x1.5”, the “Cdk 5, regulatory subunit 2 (p39) expression ↑ (fold change)” value (kidney) was “↑ x1.5” and the “Cdki 1A (p21, Cip 1) expression ↑ (fold change)” value (kidney) was “Cip 1) ↑ x5”. For the same substance, the “Corticotropin releasing hormone receptor type 2 beta isoform expression ↑ (fold change)” value (kidney) was “isoform ↑ x1.5”, the “Death effector domain-containing expression ↓ (fold change)” value (kidney) was “↓ x3.5” and the “Dopamine receptor D2 expression ↑ (fold change)” value (kidney) was “receptor D2 ↑ x4.5”. The “Fas/Apo-1/CD95 expression ↑ (fold change)” value (kidney) was “↑ x1.5”, the “GABA (A) receptor, γ2 precursor expression ↑ (fold change)” value (kidney) was “precursor ↑ x2” and the “GFR-bound protein 7 expression ↑ (fold change)” value (kidney) was “protein 7 ↑ x2”. For the same substance, the “GFR-bound protein 14 expression ↑ (fold change)” value (kidney) was “protein 14 ↑ x2”, the “Gene expression (AvgDiff): IGF-1” value (kidney) was 25 and the “Gene expression (AvgDiff): IGF-2” value (kidney) was 49. The “Gene expression (AvgDiff): IGFBP2” value (kidney) was 563, the “Gene expression (AvgDiff): IR” value (kidney) was 196 and the “Gene expression (AvgDiff): SSTR2” value (kidney) was 126. For the same substance, the “Gene expression (AvgDiff): SSTR3” value (kidney) was 82, the “Glucocorticoid receptor DNA binding factor 1 expression ↓ (fold change)” value (kidney) was “↓ x4.5” and the “Glutamate receptor, metabotropic 2 precursor expression ↓ (fold change)” value (kidney) was “precursor ↓ x3”. The “Growth arrest-specific 6 expression ↑ (fold change)” value (kidney) was “specific 6 ↑ x1.5”, the “IGF-1 expression ↓ (fold change)” value (kidney) was “IGF-1 ↓ x2.5” and the “IGF-2 expression ↓ (fold change)” value (kidney) was “IGF-2 ↓ x2”. The “IGFBP2 expression ↑ (fold change)” value (kidney) was “IGFBP2 ↑ x1.5”, the “IL-7 R precursor expression ↑ (fold change)” value (kidney) was “↑ x2” and the “IRF5 expression ↑ (fold change)” value (kidney) was “IRF5 ↑ x2”. For the same substance, the “Insulin receptor expression ↓ (fold change)” value (kidney) was “↓ x3”, the “K+ voltage-gated channel, Shaw-related subfamily, member 3 expression ↑ (fold change)” value (kidney) was “member 3 ↑ x2.5” and the “LIF (cholinergic differentiation factor) expression ↑ (fold change)” value (kidney) was “factor) ↑ x2”. The “Na+ channel, nonvoltage-gated 1, β (Liddle syndrome) expression ↓ (fold change)” value (kidney) was “↓ x2”, the “Natriuretic peptide receptor A/guanylate cyclase A (atrionatriuretic peptide receptor A) expression ↑ (fold change)” value (kidney) was “↑ x2” and the “Opioid receptor, δ1 expression ↑ (fold change)” value (kidney) was “δ1 ↑ x2.5”. For the same substance, the “PDGFR, α polypeptide expression ↑ (fold change)” value (kidney) was “polypeptide ↑ x1.5”, the “PG-endoperoxide synthase 1 (prostaglandin G/H synthase and cyclooxygenase) expression ↓ (fold change)” value (kidney) was “x3.5” and the “PI-3-kinase, catalytic, α polypeptide expression ↓ (fold change)” value (kidney) was “polypeptide ↓ x3”. The “PP 3 (formerly 2B), catalytic subunit, β isoform (calcineurin A β) expression ↓ (fold change)” value (kidney) was “↓ x2”, the “Putative chemokine receptor; GTP-binding protein expression ↑ (fold change)” value (kidney) was “↑ x2” and the “SSTR2 expression ↑ (fold change)” value (kidney) was “SSTR 2↑ x2”. For the same substance, the “SSTR 3 expression ↑ (fold change)” value (kidney) was “SSTR 3↑ x3”, the “Solute carrier family 6 (neurotransmitter transporter, creatin), member 8 expression ↓ (fold change)” value (kidney) was “member 8 ↓ x3” and the “Solute carrier family 9 (Na+/H+ exchanger) isoform 3 regulatory factor 1 expression ↑ (fold change)” value (kidney) was “↑ x2”. The “TGF, β1 expression ↑ (fold change)” value (kidney) was “TGF, β1 ↑ x1.5”, the “THR binding protein expression ↑ (fold change)” value (kidney) was “protein ↑x1.5” and the “THR, α (avian erythroblastic leukemia viral (v-erb-a) oncogene homolog) expression ↑ (fold change)” value (kidney) was “homolog) ↑x1.5”. The “THR-associated protein, 240kδ subunit expression ↓ (fold change)” value (kidney) was “subunit ↓ x1.5”, the “TNF, α-induced protein 3 expression ↓ (fold change)” value (kidney) was “↓ x1.5” and the “TNFR superfamily, member 12 expression ↑ (fold change)” value (kidney) was “member 12 ↑ x2”. The “VWF precursor expression ↑ (fold change)” value (kidney) was “x2”, the “Vasopressin-activated calcium-mobilizing receptor-1 expression ↓ (fold change)” value (kidney) was 1 ↓ x2 and the “δ sleep inducing peptide, immunoreactor expression ↑ (fold change)” value (kidney) was “x2.5”. The “1-PI-4-phosphate 5-kinase isoform C expression ↓ (fold change)” value (liver) was “↓ x2” and the “5-hydroxytrypt amine (serotonine) receptor 6 expression ↑ (fold change)” value (liver) was “receptor 6 ↑ x2.5”.
